Legend:
C57BL/6 mice = assay: Leukocyte recruitment to peritoneal lavage; type: in vivo, mouse; details: C57BL/6, 200 μg i.p., 24 h post-injection, N = 5, vs saline
Procedure: C57BL/6 mice (N = 5) were intraperitoneally injected with 200 μg DP7, DP8, or DP10. An equal volume of sterile saline served as a control. Cells in the peritoneal lavage were collected and counted at 24 h postinjection. To analyze the recruitment of leukocytes, cells were stained with PE-anti-mouse-GR-1(clone RB6-8C5; BD Biosciences Cat# 553128), APC-anti-mouse-F4/80 (clone T45-2342; BD Biosciences Cat# 566787) or PE-anti-CD11b (clone M1/70; BD Biosciences Cat# 557397) at 4 °C for 30 min and then detected using a BD FACSCalibur (BD Biosciences, San Jose, CA). Neutrophils, inflammatory monocytes and macrophages were gated as Gr1^+F4/80^−, F4/80^+Gr1^+, and F4/80^+CD11b^+ cells, respectively.

BMDCs [1] = assay: BMDC maturation surface markers (flow cytometry); type: cell-based, mouse; details: CD11c+ BMDCs, 16 h, DP7 40 µg/ml, CpG 20 µg/ml
Procedure: To study the effect of the CpG/DP7 complex on BMDCs, BMDCs were incubated with DP7 (40 µg/ml), CpG (20 µg/ml) or the CpG/DP7 combination for 16 h, stained with APC-anti-Mouse CD11c (Clone HL3; BD Biosciences Cat# 550261), FITC-anti-mouse-CD40 (Clone 3/23; BD Biosciences Cat# 561845), PerCP-Cy5.5-anti-mouse-CD80(clone 16-10A1; BD Biosciences Cat# 560526) or FITC-anti-mouse-CD86 (clone GL1; BD Biosciences Cat# 561962). BMDCs were gated as CD11c^+ and analyzed for CD40, CD80, CD86 expression by NovoExpress software (ACEA Biosciences, Inc.).

GPR35 = assay: Receptor internalization assay; type: cell-based, mouse; details: BMDCs, DP7 40 μg/ml, 30 min, immunofluorescence; similar in JASWII and RAW264.7 cells
Procedure: BMDCs (1 × 10^5) were plated on a microscope cover glass and cultured at 37 °C overnight. The next day, the cells were stimulated with 40 μg/ml DP7 at 37 °C for 30 min and then fixed in 4% paraformaldehyde in PBS at room temperature for 15 min. After washing with PBS 3 times, the BMDCs were blocked and permeabilized in buffer containing 0.1% bovine serum albumin (BSA), 0.5% Triton X-100, and 4% goat serum in PBS for 1 h. Afterward, the BMDCs were incubated with goat anti-GPR35 (clone M-14; Santa Cruz Biotechnology Cat# sc-79507; 1:100) in 3% BSA/PBS buffer at 4 °C for 16 h, followed by staining with the FITC-labeled anti-goat IgG (H + L) secondary antibody (1:100, ZSGB-BIO, Beijing, China) in 3% BSA/PBS buffer at 37 °C for 1 h. BMDCs were finally stained with DAPI and stored at 4 °C until imaging. Confocal imaging was performed with an LSM 800 Zeiss confocal microscope.

JAWSII cells [2] = assay: Intracellular calcium measurement (Fluo 3-AM); type: cell-based, mouse; details: DP7 40 µg/ml, 15 and 30 min
Procedure: JAWSII cells (1 × 10^5) were seeded into 96-well clear–bottom black plates (Corning, New York, USA.) with six replicate wells per condition and cultured at 37 °C overnight. The cells were washed once with Hank’s buffer followed by incubation with the calcium fluorescence probe Fluo 3-AM (5 μM; excitation at 506 nm and emission at 526 nm) (Beyotime, Hangzhou, China) in Hank’s buffer at 37 °C for 30 min. After treatment, the cells were washed once with Hank’s buffer and subsequently stimulated with DP7 (40 µg/ml) for 15 min or 30 min. Fluorescence was measured by a Celligo® imaging cytometer. The Ca^2+ levels are represented by the mean fluorescence intensity of individual cells.

JAWSII cells [3] = assay: Western blotting of Erk1/2 phosphorylation in JAWSII cells; type: cell-based, mouse
Source text: Protein extracts from each sample were separated by 12% SDS-PAGE and transferred onto polyvinylidene fluoride membranes (Millipore, Billerica, MA). The membranes were blocked with 5% non-fat milk. Then, the protein bands were probed with primary antibodies against NF-κB p65 XP® Rabbit mAb (clone D14E12; Cell Signaling Technology Cat#8242), Phospho-NF-κB p65 (Ser536) Rabbit mAb (clone 93H1; Cell Signaling Technology Cat#3033), Erk1/2 Rabbit mAb (clone 137F5; Cell Signaling Technology Cat#4695) and Phospho- Erk1/2 (Thr202/Tyr204) XP® Rabbit mAb (clone D13.14.4E; Cell Signaling Technology Cat#4370) overnight at 4 °C. Then the membranes were incubated with horseradish peroxidase-conjugated goat anti-rabbit IgG (1:3000; Cell Signaling Technology Cat#7074). The blots derive from the same experiment were processed in parallel. The full, uncropped blot with molecular weight marker are shown in Supplementary Fig. 9.

BMDCs [4] = assay: RNA-Seq analysis of BMDCs challenged with DP7; type: cell-based, mouse; details: DP7 30 min vs control
JAWSII cells [5] = assay: RT-qPCR of transcription factor mRNA after DP7, with or without chemical inhibitors; type: cell-based, mouse; details: for effect of inhibitor on DP7-induced mRNA expression of transcription factors: pretreatment 1 h at 10 μM (BIBR796 5 μM) or PTX 200 ng/ml 3 h, then DP7 30 min, compared to DP7 alone
Procedure: [The procedure below names another cell line; the source lists this cell line under the same test.] Small molecule inhibitors were employed to elucidate the upstream signaling pathways involved in the expression of 6 transcription factors: selumetinib (MEK1/2 inhibitor), BIBR796 (p38α inhibitor), sp600125 (pan JNK inhibitor), XMD8-92 (Erk5 inhibitor), sotrastaurin (PKCθ inhibitor), AS-605240 (PI3Kγ inhibitor), LY294002 (PI3Kα/β/γ inhibitor) and pertussis toxin (PTX, Gi protein inhibitor). BMDCs were pretreated with 10 μM selumetinib, 5 μM BIBR796, 10 μM sp600125, 10 μM XMD8-92, 10 μM sotrastaurin, 10 μM AS-605240, and 10 μM LY294002 at 37 °C for 1 h and with 200 ng/ml PTX at 37 °C for 3 h. BMDCs were exposed to DP7 at 37 °C for 30 min, and then the mRNA expression of the transcription factors was examined by RT-qPCR.
Total RNA was isolated using TRIzol reagent (Takara, Otsu, Japan), further purified by isopropanol/ethanol precipitation and finally dissolved in RNase-Free H2O. cDNA was prepared with 5× All-In-One MasterMix with the AccuRT Genomic DNA Removal Kit (Abm Canada Inc., Milton, ON, Canada) and employed as a template to assess the expression of various genes with EvaGreen 2× qPCR MasterMix (Abm Canada Inc., Milton, ON, Canada). The results were analyzed according to the relative expression normalized against β-actin.

## VQWRIRVAVIRK [DP7]
C57BL/6 mice
  number of macrophages in the peritoneal lavage: modest but nonsignificant increase
  numbers of monocytes and neutrophils in the peritoneal lavage: significant increase
BMDCs [1]
  CD40-FITC positive BMDCs: 1.1%
  CD80-PerCP-Cy5.5 positive BMDCs: 28.9%
  CD86-FITC positive BMDCs: 36.2%
GPR35
  GPR35 localisation after stimulation: internalization of GPR35 into the cytoplasm
JAWSII cells [2]
  intracellular Ca2+ levels: elevation
JAWSII cells [3]; JAWSII cells, DP7 30 and 60 min, western blotting
  Erk1/2 phosphorylation: enhancement
BMDCs [4]
  Fold change, Akap9: 2.08
  Fold change, Arap2: 2.02
  Fold change, Atxn1l: 2.04
  Fold change, Btg2: 2.47
  Fold change, Ccdc77: 2.06
  Fold change, Ccno: 2.1
  Fold change, Clec4b2: 2.82
  Fold change, Depdc5: 2.01
  Fold change, Dgkh: 2.4
  Fold change, Egr1: 16.63
  Fold change, Egr2: 2.4
  Fold change, Egr3: 15.7
  Fold change, Ethe1: 2.89
  Fold change, F3: 2.23
  Fold change, Fbxw7: 2.25
  Fold change, Fos: 6.34
  Fold change, Fosb: 114.79
  Fold change, Gm6377: 2.68
  Fold change, Gm9159: 2.03
  Fold change, Gm12359: 2.13
  Fold change, Gpr35: 2.2
  Fold change, Gpr52: 3.32
  Fold change, Gsta1: 3.08
  Fold change, Ier2: 3.15
  Fold change, Igj: 2.68
  Fold change, Jmjd1c: 2.09
  Fold change, Klhl15: 3.73
  Fold change, Lmo1: 2.81
  Fold change, Lrrc40: 2.19
  Fold change, Nr4a1: 19.81
  Fold change, Nr4a2: 2.02
  Fold change, Osm: 2.42
  Fold change, Parp6: 2.3
  Fold change, Perp: 2.05
  Fold change, Phf8: 2.17
  Fold change, Plk3: 2.75
  Fold change, Prph: 2.22
  Fold change, Prrg4: 2.05
  Fold change, Slc38a9: 2.15
  Fold change, Suco: 2.19
  Fold change, Szt2: 2.01
  Fold change, Tjp1: 3.44
  Fold change, Tmem51: 2.05
  Fold change, Tnfaip6: 2.01
  Fold change, Trib1: 2.69
JAWSII cells [5]; DP7 40 μg/ml, 30 min, vs nonstimulated
  expression of Egr1, Egr2, Egr3, c-Fos, Fosb and Nr4a1 mRNA: elevated expression

## pertussis toxin [PTX, reference compound]
JAWSII cells [3]; JAWSII cells pretreated with PTX, then DP7 30 and 60 min
  effect on activation of pErk1/2 by DP7: partially abolished
JAWSII cells [5]
  effect of inhibitor on DP7-induced mRNA expression of transcription factors: significantly suppressed

## CN1CCN(c2nc(C3=C(c4c[nH]c5ccccc45)C(=O)NC3=O)c3ccccc3n2)CC1 [sotrastaurin]
JAWSII cells [5]
  effect of inhibitor on DP7-induced mRNA expression of transcription factors: significantly suppressed

## O=C1NC(=O)/C(=C\c2ccc3nccnc3c2)S1 [AS-605240]
JAWSII cells [5]
  effect of inhibitor on DP7-induced mRNA expression of transcription factors: significantly suppressed

## Cc1ccc(-n2nc(C(C)(C)C)cc2NC(=O)Nc2ccc(OCCN3CCOCC3)c3ccccc23)cc1 [BIBR796]
JAWSII cells [5]
  effect of inhibitor on DP7-induced mRNA expression of transcription factors: little or no inhibitory effect

## O=c1cc(N2CCOCC2)oc2c(-c3ccccc3)cccc12 [LY294002]
JAWSII cells [5]
  effect of inhibitor on DP7-induced mRNA expression of transcription factors: little or no inhibitory effect

## Cn1cnc2c(F)c(Nc3ccc(Br)cc3Cl)c(C(=O)NOCCO)cc21 [selumetinib]
JAWSII cells [5]
  effect of inhibitor on DP7-induced mRNA expression of transcription factors: significantly suppressed

## CCOc1cc(N2CCC(O)CC2)ccc1Nc1ncc2c(n1)N(C)c1ccccc1C(=O)N2C [XMD8-92]
JAWSII cells [5]
  effect of inhibitor on DP7-induced mRNA expression of transcription factors: little or no inhibitory effect

## Oc1c2ccccc2c2c3c(cccc13)N=N2 [sp600125]
JAWSII cells [5]
  effect of inhibitor on DP7-induced mRNA expression of transcription factors: little or no inhibitory effect

From article PMC8138013, “Rational design of innate defense regulator peptides as tumor vaccine adjuvants” (NPJ Vaccines, 2021)
